This passage reports Activity and IC50 results from ChEMBL document CHEMBL6096682, “Discovery of D-Ring-Contracted Artemisinin as a Potent Hydrophobic Tag for Targeted Protein Degradation” (J Med Chem, 2025).

Active and inactive are the calls of the source. The calls are words filed in the database; no cut-off is given here. Some results are limits rather than exact numbers.

Data set [1] deals with T1, Estrogen receptor (Homo sapiens) (UniProt P03372).
T1 sequence (whole entry): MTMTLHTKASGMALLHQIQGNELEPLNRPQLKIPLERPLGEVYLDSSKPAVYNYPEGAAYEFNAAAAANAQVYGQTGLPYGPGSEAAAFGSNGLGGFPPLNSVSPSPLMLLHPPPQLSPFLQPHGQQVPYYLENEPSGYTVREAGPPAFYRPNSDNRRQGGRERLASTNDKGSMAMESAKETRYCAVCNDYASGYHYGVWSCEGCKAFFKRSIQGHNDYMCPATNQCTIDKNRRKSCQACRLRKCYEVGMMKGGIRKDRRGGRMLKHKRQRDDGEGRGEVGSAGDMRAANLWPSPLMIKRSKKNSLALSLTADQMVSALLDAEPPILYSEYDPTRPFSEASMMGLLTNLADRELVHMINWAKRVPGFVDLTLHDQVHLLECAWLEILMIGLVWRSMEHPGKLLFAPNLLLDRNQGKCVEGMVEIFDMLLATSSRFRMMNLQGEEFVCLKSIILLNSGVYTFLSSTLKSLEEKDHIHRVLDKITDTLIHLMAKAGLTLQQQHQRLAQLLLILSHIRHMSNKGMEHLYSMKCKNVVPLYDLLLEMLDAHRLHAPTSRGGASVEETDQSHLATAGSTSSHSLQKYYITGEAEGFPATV
As to the kind of experiment: HyT degrader activity at ER-alpha in human MCF7 cells assessed as induction of ER-alpha degradation by measuring decrease in ER-alpha level at 10 uM incubated for 48 hrs by western blot analysis. More on the design: scale not given: the % may be the effect or the level left. It is filed as cell-based. A general note: Immunoblotting shows a protein as a band on a membrane.

Data set [2] deals with T1, Estrogen receptor (Homo sapiens). Briefly: Binding affinity to ER-alpha in human MCF7 cells assessed as increase in thermal stability of protein at 100 uM incubated for 1 hr followed by exposure to heat at 25 to 66 degC for 3 mins and incubation for 3 mins at room temperature by thermal shift binding assay. The following applies: time 66.0 min. It is filed as cell-based.

The nature of data set [3]: Toxicity in Balb/c mouse xenografted with human MCF7 cells assessed as effect on lymphocytes count at 5 to 10 mg/kg, iv measured after 24 hrs. The settings on record: in vivo, dose 5-10 mg/kg. It is filed as organism-based. (A xenograft is tissue or cells of one species grown in another, often human tumour cells in immunodeficient mice.)
Data set [4] deals with T1, Estrogen receptor (Homo sapiens). As to the kind of experiment: HyT degrader activity at ER-alpha in human MCF7 cells assessed as induction of ER-alpha degradation by measuring decrease in ER-alpha level at 10 uM incubated for 48 hrs followed by drug wash-out and measured after 48 hrs by western blot analysis. It is filed as cell-based.
Data set [5] relates to MCF7. Briefly: Antiproliferative activity against human MCF7 cells overexpressing ER-alpha Y537S mutant assessed as reduction in cell viability incubated for 48 hrs by MTT assay. Type of data set: functional, cell-based. The following applies: MCF7, 48 h. (In general: Formazan colour is commonly taken as a measure of viable cells.)
Data set [6] can be described thus: Toxicity in Balb/c mouse xenografted with human MCF7 cells assessed as effect on liver morphological changes at 5 to 10 mg/kg, iv measured after 24 hrs by Hematoxylin-Eosin staining based analysis. Type of data set: organism-based. The following applies: in vivo, dose 5-10 mg/kg.
Data set [7] is described as follows: Toxicity in Balb/c mouse xenografted with human MCF7 cells assessed as effect on hemoglobin content at 5 to 10 mg/kg, iv measured after 24 hrs. It is filed as organism-based. The settings on record: in vivo, dose 5-10 mg/kg.
Data set [8] deals with T1, Estrogen receptor (Homo sapiens). Briefly: HyT degrader activity at ER-alpha in human MCF7 cells assessed as induction of ER-alpha degradation by measuring decrease in ER-alpha level at 10 uM incubated for 48 hrs followed by drug wash-out and measured after 72 hrs by western blot analysis. It is filed as cell-based.
Data set [9] is described as follows: Toxicity in Balb/c mouse xenografted with human MCF7 cells assessed as effect on red blood cells count at 5 to 10 mg/kg, iv measured after 24 hrs. The settings on record: in vivo, dose 5-10 mg/kg. Type of data set: organism-based.
Data set [10] has as its target T1, Estrogen receptor (Homo sapiens). Briefly: HyT degrader activity at ER-alpha in human MCF7 cells assessed as induction of ER-alpha degradation by measuring decrease in ER-alpha level at 10 uM incubated for 72 hrs by western blot analysis. It is filed as cell-based.
Data set [11] in a line: Hepatotoxicity in Balb/c mouse xenografted with human MCF7 cells assessed as effect on AST level in serum at 5 to 10 mg/kg, iv measured after 24 hrs. It is filed as toxicity, organism-based. The following applies: in vivo, dose 5-10 mg/kg.
The nature of data set [12]: Toxicity in Balb/c mouse xenografted with human MCF7 cells assessed as effect on spleen morphological changes at 5 to 10 mg/kg, iv measured after 24 hrs by Hematoxylin-Eosin staining based analysis. It is filed as organism-based. The settings on record: in vivo, dose 5-10 mg/kg.
The nature of data set [13]: Toxicity in Balb/c mouse xenografted with human MCF7 cells assessed as changes in body weight at 5 to 10 mg/kg, iv administered every 3 days and measured for 21 days. Type of data set: organism-based. The settings on record: in vivo, 504 h, dose 5-10 mg/kg, time 21 day.
Data set [14] concerns MCF7. As to the kind of experiment: Antiproliferative activity against human MCF7 cells overexpressing EGFR assessed as reduction in cell viability incubated for 48 hrs by MTT assay. It is filed as functional, cell-based. The settings on record: MCF7, 48 h.
Data set [15] has as its target T1, Estrogen receptor (Homo sapiens). As to the kind of experiment: HyT degrader activity at ER-alpha in human MCF7 cells assessed as induction of ER-alpha degradation by measuring residual ER-alpha level at 10 uM incubated for 12 hrs by immunoblot analysis. It is filed as cell-based.
The target is the same in data set [16]. As to the kind of experiment: HyT degrader activity at ER-alpha in human MCF7 cells assessed as induction of ER-alpha degradation by measuring decrease in ER-alpha level at 10 uM pretreated with 26S proteasome inhibitor, MG-132 and NAE inhibitor, MLN4924 for 6 hrs followed by incubation with compound for 24 hrs by immunoblot analysis. It is filed as cell-based.

In data set [17] the test system is MCF7. Briefly: Antitumor activity against human MCF7 cells xenografted in Balb/c mouse assessed as reduction in tumor weight at 5 to 10 mg/kg, iv administered every 3 days and measured on day 21. Type of data set: functional, organism-based. The following applies: dose 5-10 mg/kg, time 21.0 day.
Data set [18] deals with MCF7. Briefly: Antitumor activity against human MCF7 cells xenografted in Balb/c mouse assessed as tumor tissue damage at 10 mg/kg, iv administered every 3 days and measured on day 21 by Hematoxylin-Eosin staining based analysis. Type of data set: functional, organism-based. The settings on record: time 21.0 day.
A short description of data set [19]: Toxicity in Balb/c mouse xenografted with human MCF7 cells assessed as effect on hematocrit level at 5 to 10 mg/kg, iv measured after 24 hrs. The following applies: in vivo, dose 5-10 mg/kg. Type of data set: organism-based.
The target in data set [20] is Estrogen receptor beta (Homo sapiens) (UniProt Q92731). Briefly: HyT degrader activity at ER-beta in human MCF7 cells assessed as induction of ER-beta degradation by measuring decrease in ER-beta level at 1 to 10 uM incubated for 24 hrs by immunoblot analysis. It is filed as cell-based. The settings on record: dose 1-10 µM.
Sequence of Estrogen receptor beta (Homo sapiens) (Q92731 whole entry): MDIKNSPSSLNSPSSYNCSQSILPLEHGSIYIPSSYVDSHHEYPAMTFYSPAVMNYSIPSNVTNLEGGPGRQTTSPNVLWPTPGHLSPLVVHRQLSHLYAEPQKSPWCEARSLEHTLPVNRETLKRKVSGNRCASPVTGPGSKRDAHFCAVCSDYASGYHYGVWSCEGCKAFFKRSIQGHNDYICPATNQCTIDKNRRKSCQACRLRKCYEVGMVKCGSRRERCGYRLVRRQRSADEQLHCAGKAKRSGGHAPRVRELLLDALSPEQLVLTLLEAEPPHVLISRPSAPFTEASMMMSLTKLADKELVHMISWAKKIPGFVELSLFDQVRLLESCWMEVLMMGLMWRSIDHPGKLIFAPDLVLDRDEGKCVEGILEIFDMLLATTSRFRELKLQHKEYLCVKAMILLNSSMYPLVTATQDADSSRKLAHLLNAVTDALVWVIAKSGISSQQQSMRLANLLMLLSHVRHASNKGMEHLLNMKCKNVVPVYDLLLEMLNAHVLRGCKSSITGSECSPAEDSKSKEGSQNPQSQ

What is called IC50 is the midpoint of a concentration-inhibition curve. Take `C[C@@H]1CCC2[C@]34OO[C@](C)(CCC13)O[C@@H]4O[C@]2(C)C(=O)NCCCOc1ccc(C(=O)c2c(-c3ccc(O)cc3)sc3cc(O)ccc23)cc1` (stereo not given in full): the Activity in data set [1] is over 99%; in data set [3] it was “Non-toxic”; in data set [6], “Non-toxic”; in data set [7] it was “Non-toxic”; in data set [9] it was “Non-toxic”; in data set [11] it was “Non-toxic”. The Activity entry was “Non-toxic” in [12], “Non-toxic” in [13], 23.5% in data set [15] and “Non-toxic” in data set [19]. Also, the outcome in data set [2], in [4], in [10], in [17], in data set [18] and in data set [20] was Active. The IC50 in data set [5] turned out to be 10.9 µM; in data set [14], 4.65 µM. For the same molecule, the outcome in [8] and in data set [16] was inactive.
